Data published in ChEMBL document CHEMBL1201862, “PubChem BioAssay data set” (2004).
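Five concentrations, 48 hours, 96-well plates. Here, GI50 denotes the concentration required for 50% inhibition of growth.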 The source made the active and inactive calls. Rule as the data show it: active = GI50 up to about 1.1 µM and inactive = higher.

Experiments:
Assay in all cases: inhibition of tumour cell growth, NCI panel, 48 h
[1] = system: ACHN
[2] = system: HCC 2998
[3] = system: HOP-92
[4] = system: K562
[5] = system: LOX IMVI
[6] = system: M14
[7] = system: M19-MEL
[8] = system: NCI-H522
[9] = system: OVCAR-3
[10] = system: OVCAR-4
[11] = system: OVCAR-5
[12] = system: OVCAR-8
[13] = system: SK-MEL-5
[14] = system: SNB-75
[15] = system: TK-10
[16] = system: U-251
[17] = system: UACC-62
[18] = system: UO-31
[19] = system: A498

Measured: GI50

COc1cc(OC)cc(-c2cc(O)c3cc4c(cc3n2)OCO4)c1
active: [1] 0.321 µM | [2] 0.225 µM | [3] 0.314 µM | [4] 0.15 µM | [5] 0.367 µM | [6] 0.239 µM | [7] 0.321 µM | [8] 0.139 µM | [9] 0.136 µM | [12] 0.395 µM | [13] 0.163 µM | [16] 0.221 µM | [17] 0.209 µM
inactive: [10] 17.1 µM | [11] 4.35 µM | [14] 2.32 µM | [15] 1.74 µM | [18] 1.22 µM

CCP(C)(C)=O
inactive: [19] > 100 µM | [1] > 100 µM | [2] > 100 µM | [4] > 100 µM | [5] > 100 µM | [6] > 100 µM | [7] > 100 µM | [9] > 100 µM | [10] > 100 µM | [11] > 100 µM | [12] > 100 µM | [13] > 100 µM | [14] > 100 µM | [15] > 100 µM | [16] > 100 µM | [17] > 100 µM | [18] > 10 µM

Cc1cc2c(cc1C)[n+]([O-])c(C(=O)C/C(=N/NC(=O)CC#N)C(=O)Nc1ccccc1C(F)(F)F)c(C)[n+]2[O-]
inactive: [19] 52 µM | [1] 29.7 µM | [2] 65.5 µM | [4] 35.6 µM | [5] 53.8 µM | [6] 44.2 µM | [7] 43.2 µM | [8] 18.8 µM | [9] 37 µM | [10] 44 µM | [11] 62.2 µM | [12] 50.8 µM | [14] 36.6 µM | [15] > 100 µM | [16] 49.5 µM | [17] 34 µM

N#CCc1ccc(/C(C#N)=C2/OC(=N)C(c3ccc(CC#N)cc3)C2=O)cc1 (stereo unspecified)
inactive: [19] > 100 µM | [1] > 100 µM | [3] > 100 µM | [4] > 100 µM | [5] > 100 µM | [6] > 100 µM | [7] > 100 µM | [8] > 100 µM | [9] > 100 µM | [10] > 100 µM | [11] > 100 µM | [12] > 100 µM | [13] > 100 µM | [14] > 100 µM | [15] > 100 µM | [17] > 100 µM | [18] > 100 µM

O=C(O)/C(=C/c1ccccc1[N+](=O)[O-])c1ccccc1
inactive: [19] > 100 µM | [1] > 100 µM | [2] > 100 µM | [4] > 100 µM | [5] > 100 µM | [6] > 100 µM | [7] > 100 µM | [8] > 100 µM | [9] > 100 µM | [10] > 100 µM | [11] > 100 µM | [12] > 100 µM | [13] > 100 µM | [14] > 100 µM | [15] > 100 µM | [16] > 100 µM | [17] > 100 µM | [18] > 100 µM

O=C1C=C(Nc2ccc(Br)cc2)c2ccccc2C1=O
inactive: [19] 17.2 µM | [1] 4.75 µM | [2] 15 µM | [4] 13.9 µM | [6] 14.9 µM | [7] 1.73 µM | [8] 11.3 µM | [9] 7.1 µM | [10] 2.09 µM | [11] 20.8 µM | [12] 12.5 µM | [14] 11 µM | [15] 19.6 µM | [16] 4 µM | [17] 4.39 µM | [18] 16 µM

CC(=O)Nc1ccc(Cl)c(Cl)c1
inactive: [1] > 100 µM | [2] > 100 µM | [4] > 100 µM | [5] > 100 µM | [6] 40.4 µM | [7] > 100 µM | [8] > 100 µM | [9] > 100 µM | [12] > 100 µM | [14] > 100 µM | [15] > 100 µM | [16] > 100 µM | [17] > 100 µM | [18] > 100 µM
